Tests used:
S. pneumoniae D39V [1] = assay: fitness (endpoint OD595 vs no drug) (fraction); higher = more growth
Method in brief: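 Fitness was defined as the optical density at the transition into stationary phase relative to the robust mean of no-drug control wells. Values were capped at 1. Cultures were started at OD595 0.01 in 384-well plates (30 µl, or 55 µl for S. pneumoniae) in TSB, LB Lennox or CY at 37 °C. OD595 was recorded every 30 min over 14 h, with the first reading subtracted as background.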

S. aureus DSM 20231 = assay: Bliss interaction score (quartile over a dose matrix) (fitness difference); higher = more antagonism (negative = synergy)
Method in brief: (§1)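 Combination data were used to infer fitness under each single drug. Fitness is the OD595 at entry into stationary phase divided by the robust mean of the plate's no-drug wells, with a cap of 1. The Bliss score is the observed minus the expected product fitness, summarised by quartiles over technical, biological and donor/recipient replicates.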

S. aureus Newman = assay: as above
Method in brief: as §1

B. subtilis 168 = assay: as above
Method in brief: as §1

S. pneumoniae D39V [2] = assay: as above
Method in brief: as §1
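For Bliss interaction score (quartile over a dose matrix) in this document: first quartile when negative (synergy) and third quartile when positive (antagonism).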

C[C@@H](O)[C@H]1C(=O)N2C(C(=O)O)=C(SCCNC=N)C[C@H]12 [Imipenem] + COc1ccc(C[C@H](N)C(=O)N[C@H]2[C@@H](O)[C@H](n3cnc4c(N(C)C)ncnc43)O[C@@H]2CO)cc1 [Puromycin]
fitness, S. pneumoniae D39V [1], one replicate
Settings	first compound 0.005 µg/mL	first compound 0.01 µg/mL	first compound 0.02 µg/mL
partner 1 µg/mL	0.896	0.955	0.973
partner 2 µg/mL	0.931	0.954	0.941
partner 4 µg/mL	0.729	0.791	0.759

fitness, S. pneumoniae D39V [1]
Settings	first compound 0.0065 µg/mL	first compound 0.013 µg/mL	first compound 0.026 µg/mL
partner 1 µg/mL	0.992	0.989	0.964
partner 2 µg/mL	0.96	0.886	0.906
partner 4 µg/mL	0.748	0.783	0.739

Settings	Bliss interaction score
B. subtilis 168	0.0681
S. aureus DSM 20231	0.0683
S. aureus Newman	-0.0481
S. pneumoniae D39V [2]	0.0871

C[C@@H](O)[C@H]1C(=O)N2C(C(=O)O)=C(SCCNC=N)C[C@H]12 [Imipenem] + C[C@H]1COc2c(N3CCN(C)CC3)c(F)cc3c(=O)c(C(=O)O)cn1c23 [Levofloxacin]
fitness, S. pneumoniae D39V [1]
Settings	first compound 0.005 µg/mL	first compound 0.0065 µg/mL	first compound 0.01 µg/mL	first compound 0.013 µg/mL	first compound 0.02 µg/mL	first compound 0.026 µg/mL
partner 0.1725 µg/mL	0.958	–	0.948	–	0.963	–
partner 0.2 µg/mL	–	0.886	–	0.885	–	0.871
partner 0.345 µg/mL	0.894	–	0.877	–	0.826	–
partner 0.4 µg/mL	–	0.77	–	0.778	–	0.713
partner 0.69 µg/mL	0.571	–	0.615	–	0.576	–
partner 0.8 µg/mL	–	0.227	–	0.361	–	0.329

Settings	Bliss interaction score
B. subtilis 168	-0.17
S. aureus DSM 20231	0.025
S. aureus Newman	0.0287
S. pneumoniae D39V [2]	-0.0377

C[C@@H](O)[C@H]1C(=O)N2C(C(=O)O)=C(SCCNC=N)C[C@H]12 [Imipenem] + C[n+]1ccc(-c2cc[n+](C)cc2)cc1 [Paraquat]
fitness, S. pneumoniae D39V [1], one replicate
Settings	first compound 0.005 µg/mL	first compound 0.01 µg/mL	first compound 0.02 µg/mL
partner 1.5 µg/mL	0.991	0.997	≥ 1
partner 3 µg/mL	0.994	0.996	≥ 1
partner 6 µg/mL	≥ 1	≥ 1	0.998

fitness, S. pneumoniae D39V [1]
Settings	first compound 0.0065 µg/mL	first compound 0.013 µg/mL	first compound 0.026 µg/mL
partner 1.5 µg/mL	0.97	0.983	–
partner 3 µg/mL	0.968	0.969	0.939
partner 6 µg/mL	0.926	0.799	0.847

Settings	Bliss interaction score
B. subtilis 168	-0.0424
S. aureus DSM 20231	0.0307
S. aureus Newman	0.0426
S. pneumoniae D39V [2]	0.0638

From the supplement of paper PMC10627819
